Where two headings read alike, the source gives them in different places.
Assays:
[1] = test system: P. falciparum FcM29-Cameroon strain; assay: Antimalarial chemosensitivity test (radioactive micromethod, tritiated hypoxanthine incorporation) on FcM29-Cameroon strain; type: cell-based; conditions: Plasmodium falciparum, Erythrocyte, read-out: IC50 (concentration required to inhibit parasite growth by 50%)
Experimental: (§1) The P. falciparum strains are cultured continuously according to the method of Trager and Jensen (Science, 1976, 193, 673-675): the parasites are maintained in human red blood cells (O±), diluted to a blood parasite level of 2% in RPMI 1640 medium supplemented with 25 mM of Hepes+24 mM NaHCO3+2 mM L-glutamine and with 5% of human serum of all groups. The parasites are incubated at 37° C. in a humid atmosphere and at 5% CO2.
The antimalarial activity tests are carried out according to the radioactive micromethod of Desjardins et al. (Antimicrob. Agents Chemother., 1979, 16, 710-718). Each molecule is tested in triplicate. The assays are carried out in 96-well microplates. The P. falciparum strains are cultured in solutions of RPMI 1640 supplemented with 5% of human serum with a haematocrit at 2% and a blood parasite level at 1.5%. For each assay, the parasites are incubated with decreasing concentrations of the test compounds for 48 h at 37° C., in a humid atmosphere and at 5% CO2. Artemisinin and chloroquine diphosphate are used as reference molecules. The first dilution of the test compounds is effected at 1 mg/ml in dimethyl sulphoxide. The dilution range for the successive daughter solutions is also prepared in dimethyl sulphoxide. Each daughter dilution is then diluted to 1/50th in RPMI 1640 supplemented with 5% of human serum, all the dilutions being carried out at 37° C. These dilutions are then added to the parasites in culture in the microplates. After addition of the test compound, the parasites are cultured in RPMI 1640 containing 5% of human serum and 1% of dimethyl sulphoxide. The parasite growth is measured by incorporation of tritiated hypoxanthine (added 24 h after the beginning of exposure to the test compound) and compared to the incorporation in the absence of the test compound (taken as 100%). The IC50 values (concentrations required to inhibit parasite growth by 50%) are determined by plotting the percentage inhibition as a function of the logarithm of the dose, using the GraphPad Prism 4® processing software (GraphPad Software Inc., 5755 Oberlin Drive, #110, San Diego, Calif. 92121, USA).

[2] = test system: P. falciparum FcB1-Columbia strain; assay: Antimalarial chemosensitivity test (radioactive micromethod, tritiated hypoxanthine incorporation) on FcB1-Columbia strain; type: cell-based; conditions: Plasmodium falciparum, read-out: IC50 (concentration required to inhibit parasite growth by 50%)
Experimental: as §1
The antimalarial activity tests are carried out according to the radioactive micromethod of Desjardins et al. (Antimicrob. Agents Chemother., 1979, 16, 710-718). Each molecule is tested in triplicate. The assays are carried out in 96-well microplates. The P. falciparum strains are cultured in solutions of RPMI 1640 supplemented with 5% of human serum with a haematocrit at 2% and a blood parasite level at 1.5%. For each assay, the parasites are incubated with decreasing concentrations of the test compounds for 48 h at 37° C., in a humid atmosphere and at 5% CO2. Artemisinin and chloroquine diphosphate are used as reference molecules. The first dilution of the test compounds is effected at 1 mg/ml in dimethyl sulphoxide. […] The parasite growth is measured by incorporation of tritiated hypoxanthine (added 24 h after the beginning of exposure to the test compound) and compared to the incorporation in the absence of the test compound (taken as 100%). […]

Compound	IC50 ([1]; 48 h) [µM]	IC50 ([1]; FcM29-Cameroon strain (very strongly chloroquine resistant), in human red blood cells, 48 h incubation) [µM]	IC50 ([2]; Erythrocyte, FcB1-Columbia strain (moderately chloroquine resistant), in human red blood cells, 48 h incubation) [µM]	IC50 ([2]; FCB1, Erythrocyte, 48 h) [µM]
CC(C)C1=C[C@H]2OC3(CCN(CCCNc4ccnc5cc(Cl)ccc45)CC3)OO[C@@]2(C)CC1 [PA1011]	0.013			
Clc1ccc2c(NCCN3CCC4(CC3)OOC3(O4)C4CC5CC(C4)CC3C5)ccnc2c1 (stereo not shown) [PA1021, 7-Chloro-N-[2-(1H-dispiro[piperidine-4,3′-[1,2,4]trioxolane-5′,2″-tricyclo[3.3.1.1^3,7]decan]-1-yl)ethyl]quinolin-4-amine]	0.006			
CN(C)c1ccc2nccc(NCCN3CCC4(CC3)OOC3(O4)C4CC5CC(C4)CC3C5)c2c1 (stereo not shown) [PA1026, N^4-[2-(1H-Dispiro[piperidine-4,3,-[1,2,4]trioxolane-5′,2″-tricyclo[3.3.1.1^3,7]decan]-1-yl)ethyl]-N^6,N^6-dimethylquinoline-4,6-diamine]	0.0044			
C[C@@H]1CC[C@H]2[C@@H](C)C(=O)O[C@@H]3O[C@@]4(C)CC[C@@H]1[C@]32OO4 [artemisinin]		0.005	0.011	
CCN(CC)CCCC(C)Nc1ccnc2cc(Cl)ccc12 (stereo not shown) [chloroquine]	0.258			0.066

From patent US7947701B2, “Dual molecules containing peroxy derivative, the synthesis and therapeutic applications thereof” (Sanofi-Aventis, priority 2003, dated 2011)
